Data from the NIST ThermoML archive (doi:10.1016/j.fluid.2005.09.011).

Details: Liquid; for mass density: 101.33 kPa

FC(F)C(F)(F)C(F)(F)C(F)(F)C(F)(F)C(F)(F)C(F)(F)C(F)F [1,1,2,2,3,3,4,4,5,5,6,6,7,7,8,8-hexadecafluorooctane]
Details | mass density [kg/m3] | vapor or sublimation pressure [kPa]
288.15 K | 1775.3 | –
289.31 K | – | 0.55
293.15 K | 1764.4 | –
293.26 K | – | 0.75
298.15 K | 1753.4 | –
298.2 K | – | 0.99
303.15 K | 1742.4 | –
303.18 K | – | 1.43
308.15 K | 1731.3 | –
308.17 K | – | 1.92
313.15 K | 1720.2 | –
313.18 K | – | 2.49
318.14 K | – | 3.12
323.15 K | – | 4.07
328.15 K | – | 5.26
333.14 K | – | 6.64
